Measured values taken from patent publication US7897620B2, “Methods of using anti-inflammatory compounds” (Cambridge Enterprise Limited, priority 2007, dated 2011).
pEC50: −log10 of the molar value. Read-outs that look alike come from different tables or passages of the source.

How the values were obtained:
[1] = Pharmacokinetics following a single dose in dog (crossover iv / per os); type: in vivo; conditions: plasma; for Vd: read-out: Vss
Method: In a separate experiment, (I′) was compared with the second best compound (V) for pharmacokinetic parameters in a different (non-rodent) species, the dog. Single doses (1 mg/kg in 5% DMSO intravenously or 3 mg/kg in 1% CMC per os) were administered to a single dog for each compound in a simple crossover design with 1 week washout between the two routes of administration.

[2] = tested on: MCP-1 induced THP-1 cell migration; experiment: ChemoTx transwell migration assay, MCP-1 induced migration of THP-1 cells; type: cell-based; conditions: Homo sapiens
Method: (§1) In principle, this assay consists of two chambers separated by a porous membrane. The chemoattractant is placed in the lower compartment and the cells are placed in the upper compartment. After incubation for a period at 37° C. the cells move towards the chemoattractant, and the number of cells in the lower compartment is proportional to the chemoattractant activity (relative to a series of controls).
(§2) The THP-1 cell line (European Cell Culture Collection) were used as the leukocyte cell population.
(§3) First, the cell suspension to be placed in the upper compartment is prepared. The THP-1 cells are pelleted by centrifugation (770×g; 4 mins) and washed with Geys Balanced Salt Solution with 1 mg/ml BSA (GBSS+BSA). This wash is then repeated, and the cells repelleted before being resuspended in a small volume of GBSS+BSA for counting, for example using a standard haemocytometer.
(§4) The volume of GBSS+BSA is then adjusted depending on the number of cells present so that the cells are at final density of 4.45×10^6 cells per ml of GBSS+BSA. This ensures that there are […] THP-1 cells in each 25 μl of the solution that will be placed in the upper chamber of the plate.
To test a single compound for its ability to inhibit chemokine induced migration, it is necessary to prepare two lots of cells. The suspension of THP-1 cells at 4.45×10^6 cells/ml is divided into two pots. To one pot the inhibitor under test is added at an appropriate final concentration, in an appropriate vehicle (for example at 1 μM in not more than 1% DMSO). To the second pot an equal volume of GBSS+BSA plus vehicle as appropriate (e.g. not more than 1% DMSO) is added to act as a control.
Next, the chemoattractant solution to be placed in the lower compartment is prepared. For example, MCP-1 is diluted in GBSS+BSA to give a final concentration of 25 ng/ml. This is divided into two pots, as for the cell suspension. To one pot, the test compound is added to the same final concentration as was added to the cell suspension, while to the other pot an equal volume of GBSS+BSA plus vehicle as appropriate (e,g. not more than 1% DMSO) is added. Alternatively, other chemokines may be used (SDF-1α at 7.5 ng/ml; RANTES at 50 ng/ml; IL-8 at 10 ng/ml using neutrophils as the target cell population). In each case it is important to determine (in a separate experiment) the concentration of each chemokine which causes maximal stimulation of migration of the chosen target leukocyte population. This maximal concentration must then be used in experiments to test the inhibitory activity of the compounds of the invention.
Once the chemoattractant solutions for the lower wells and cell solutions for the upper chambers have been prepared, the migration chamber should be assembled. Place 29 μl of the appropriate chemoattractant solution into the lower well of the chamber. Assays should be performed with at least triplicate determinations of each condition. Once all the lower chambers have been filled, apply the porous membrane to the chamber in accordance with the manufacturer's instructions. Finally, apply 25 μl of the appropriate cell solution to each upper chamber. A plastic lid is placed over the entire apparatus to prevent evaporation.
The assembled chamber is incubated at 37° C., 5% CO2, for 2 hours. A suspension of cells in GBSS+BSA is also incubated under identical conditions in a tube: these cells will be used to construct a standard curve for determining the number of cells that have migrated to the lower chamber under each condition.
At the end of the incubation, the liquid cell suspension is gently removed from the upper chamber, and 20 μl of ice-cold 20 mM EDTA in PBS is added to the upper chamber, and the apparatus is incubated at 4° C. for 15 mins. This procedure causes any cells adhering to the underside of the membrane to fall into the lower chamber.
After this incubation the filter is carefully flushed with GBSS+BSA to wash off the EDTA, and then the filter is removed. […]

[3] = tested on: SDF-1α induced THP-1 cell migration; experiment: ChemoTx transwell migration assay, SDF-1α induced migration of THP-1 cells; type: cell-based; conditions: Homo sapiens, maximal dose of chemoattractant, read-out: ED50 SDF-1α
Method: as §1, §2, §3, §4
To test a single compound for its ability to inhibit chemokine induced migration, it is necessary to prepare two lots of cells. The suspension of THP-1 cells at 4.45×10^6 cells/ml is divided into two pots. […]

[4] = THP-1 cells, maximal dose of chemoattractant, read-out: ED50 MCP-1
[5] = THP-1 migration inhibition, Table 5, read-out: Functional ED50 versus MCP-1

SMILES | clearance ([1]; Intravenous PK (1 mg/kg)) | half-life ([1]; Intravenous PK (1 mg/kg)) | Vd ([1]; Intravenous PK (1 mg/kg)) | AUC ([1]; Oral PK (3 mg/kg)) | Tmax ([1]; Oral PK (3 mg/kg)) | bioavailability ([1]; Oral PK (3 mg/kg)) | half-life ([1]; Oral PK (3 mg/kg)) | pEC50 [2, 4] | pEC50 [2, 5] | pEC50 [3]
CC(C)(C)C(=O)N[C@H]1CCCNC1=O [Compound (I′), 3-(2′,2′-dimethylpropanoylamino)-tetrahydropyridin-2-one] | 1.9 mL/min/kg | 3.93 h | 0.6 L/kg | 20200 ng·h/mL | 1 h | 75% | 3.62 h |  |  | 
CC(C)(C)S(=O)(=O)N[C@H]1CCCCNC1=O [(IV), 3-(1′,1′-dimethylethylsulfonylamino)-caprolactam] |  |  |  |  |  |  |  | 9.10 | 9.10 | 
O=C1NCCCC[C@@H]1NC(=O)C12CC3CC(CC(O)(C3)C1)C2 [(V), 3-(3′-hydroxyadamantyl-1-carbonylamino)-caprolactam] | 7.4 mL/min/kg | 1.1 h | 0.6 L/kg | 4000 ng·h/mL | 1 h | 59% | 1.12 h |  |  | 9.70
O=C1NCCCC[C@@H]1NC(=O)C12CC3CC(CC(C3)C1)C2 [(II), 3-(adamantane-1-carbonylamino)-caprolactam] |  |  |  |  |  |  |  | 10.10 | 10.10 | 10.00
